According to patent US20180118707A1, “BETA-NAPHTHOISOFLAVONES, COMPOSITIONS CONTAINING, AND USES OF, SAME” (Thesan Pharmaceuticals, Inc., priority 2015, published 2018):

Tests used:
CYP1A1 [1] = assay: Induction of CYP1A1 enzyme in HepG2 cells, EROD assay; format: cell-based, human; settings: human, probe 7-ethoxyresorufin (8 μM)
Protocol: (§1) The formation of resorufin is quantified by fluorometry with a fluorescence plate reader. Fluorescence is determined at λex 570 nm and λem 590 nm. The amount of resorufin is calculated from a standard curve generated using 0 to 1 μM resorufin in water at ½ log dilutions. The remaining (i.e. all cells present at the beginning of analysis, since only supernatant is taken to assay EROD) live cells are subsequently utilized for the MIT cytotoxicity assay. MTT is made up in serum-free medium at 5 mg/ml. then added to the cells giving a final concentration of 10% (0.5 mg/ml MTT final) then incubated for 2 h. The medium is carefully removed, then MTT formazan is solubilized by adding 200 μl of DMSO and subsequently mixed on a plate shaker. The absorbance is measured spectra photometrically at 550 nm and background absorbance at 690 nm is subtracted. A standard curve generated using MIT formazan (dissolved in DMSO) from O—200 μM (0, 2, 5, 10, 20, 50, 100, 200 μM) is used to calculate the final experimental values which are then expressed as (wnol resarufin/mol MTT formazan) or as fold-Induction compared to solvent.

HepG2 cells = assay: MTT cytotoxicity assay in HepG2 cells after EROD; format: cell-based, human
Protocol: as §1, with “subtracted.” for “subtracted. A standard curve generated using MIT formazan (dissolved in DMSO) from O—200 μM (0, 2, 5, 10, 20, 50, 100, 200 μM) is used to calculate the final experimental values which are then expressed as (wnol resarufin/mol MTT formazan) or as fold-Induction compared to solvent.”

CYP1A1 [2] = assay: Induction of CYP1A1 enzyme in human cultured sebocytes, EROD assay; format: cell-based; settings: cultured sebocytes, probe 7-ethoxyresorufin (8 μM)
Protocol: Cells are seeded at between 1×10^4 and 2.5×10^4 cells/well in a 96-well microtitre plate. […] 100 μl of medium is then transferred to a fresh black 96-well plate and 130 μl methanol added. The formation of resorufin is quantified by fluorometry with a fluorescence plate reader. Fluorescence is determined at λex 570 nm and λem 590 nm. The amount of resorufin is calculated from a standard curve generated using 0 to 1 μM resorufin in water at ½ log dilutions. The remaining (i.e. all cells present at the beginning of analysis, since only supernatant is taken to assay EROD) live cells are subsequently utilized for the MU cytotoxicity assay. MU is made up in serum-free medium at 5 mg/mi. then added to the cells giving a final concentration of 10% (0.5 mg/ml MIT final) then incubated for 2 h. The medium is carefully removed, then MIT formazan is solubilized by adding 200 μl of DMSO and subsequently mixed on a plate shaker. The absorbance is measured spectrophotometrically at 550 nm and background absorbance at […] is subtracted. A standard curve generated using MTT formazan (dissolved in DMSO) from O—200 μM (0, 2, 5, 10, 20, 50, 100, 200 μM) is used to calculate the final experimental values which are then expressed as (μmol resorufin/mol MTT formazan) or as fold-induction compared to solvent.

human sebocyte cells = assay: MTT cytotoxicity assay in human cultured sebocytes after EROD; format: cell-based
Protocol: The essential methodology for culture and handling of human cultured sebocytes has been described in earlier examples for HEPG2 and NHK cells. Cells are seeded at between 1×10^4 and 2.5×10^4 cells/well in a 96-well microtitre plate. […] The formation of resorufin is quantified by fluorometry with a fluorescence plate reader. Fluorescence is determined at λex 570 nm and λem 590 nm. The amount of resorufin is calculated from a standard curve generated using 0 to 1 μM resorufin in water at ½ log dilutions. The remaining (i.e. all cells present at the beginning of analysis, since only supernatant is taken to assay EROD) live cells are subsequently utilized for the MU cytotoxicity assay. MU is made up in serum-free medium at 5 mg/mi. then added to the cells giving a final concentration of 10% (0.5 mg/ml MIT final) then incubated for 2 h. The medium is carefully removed, then MIT formazan is solubilized by adding 200 μl of DMSO and subsequently mixed on a plate shaker. The absorbance is measured spectrophotometrically at 550 nm and background absorbance at […] is subtracted. A standard curve generated using MTT formazan (dissolved in DMSO) from O—200 μM (0, 2, 5, 10, 20, 50, 100, 200 μM) is used to calculate the final experimental values which are then expressed as (μmol resorufin/mol MTT formazan) or as fold-induction compared to solvent.

sebaceous glands = assay: Mouse ear assay for determination of sebaceous gland prevalence; format: in vivo; settings: C57BL/6 mice, ears, 1% solution in DMSO:acetone 50:50 twice a day for five days, vs controls
Protocol: C57BL/6.I male mice (Harlan Models), approximately 4-5 weeks of age, body weight 20-30 g, were acclimatized (individually housed) for 5 days in a 12 hour light/dark cycle standard laboratory environment (T=20-24° C., relative humidity 30-70%, 15-20 air changes per hour) with access to water and standard rodent chow (Harlan Teklad 2014C supplied by Harlan Laboratories Models, S.L.) ad libitum. Animals were anesthetized with isoflurane and the test article (80 ul, 1% solution in DMSO:acetone 50:50) was administered to the outer surface of each of the ears of between 2 and 5 mice twice a day for five days by dermal application using a micropipette tip (a little volume of the solution was also applied on the inner side of the ears). All animals were monitored daily for reaction to the treatment, signs of illness, and behavioral changes. Body weights were recorded before the first administration and immediately prior to sacrifice. Approximately 12 to 16 hours after the final administration on day 5 the mice were sacrificed by i.p. injection of sodium pentobarbital (200 mg/kg) and the ears were collected. Each ear was sectioned into two halves. For each animal, one-half of one ear was fixed, in neutral phosphate-buffered 4% formaldehyde solution (4% formalin). This trimmed section of the ear was then processed, embedded in paraffin wax and stored at room temperature. […]

SMILES	EC50 at 24 h (CYP1A1 [1]) [nM]	Toxicity threshold (HepG2 cells) [µM]	EC50 at 24 h (CYP1A1 [2]) [nM]	Toxicity threshold (human sebocyte cells) [µM]	number of differentiated sebocytes (sebaceous glands)	number of sebaceous glands (sebaceous glands)
O=c1c(-c2ccccc2)coc2ccc3ccccc3c12 [Compound B]	1000	>30	50	>30	reduction	clear reduction
COc1cccc(-c2coc3ccc4ccccc4c3c2=O)c1 [Compound G]	2000	100	250	30		
O=c1c(-c2cccc(O)c2)coc2ccc3ccccc3c12 [Compound H]	1500	>100	250	>30		
COc1ccccc1-c1coc2ccc3ccccc3c2c1=O [Compound F]	2000	>30	200	50		
O=c1c(-c2ccc(O)cc2)coc2ccc3ccccc3c12 [Compound J]	1500	100	50	>30		
